pEC50: −log10 of the molar value.
What follows are compounds tested against T1, human GPR119 (Homo sapiens, UniProt Q8TDV5) (assay: AlphaScreen cAMP assay, activation of GPR119 in Min-6/hGPR119 cells). Details: MIN6 cells stably transfected with human GPR119; intracellular cAMP; 45 minutes incubation at room temperature.
T1 construct: expression vector for human GPR119 cDNA (Acc. No. NP_848566); expressed in transfected cells
T1 sequence (Q8TDV5 1-335): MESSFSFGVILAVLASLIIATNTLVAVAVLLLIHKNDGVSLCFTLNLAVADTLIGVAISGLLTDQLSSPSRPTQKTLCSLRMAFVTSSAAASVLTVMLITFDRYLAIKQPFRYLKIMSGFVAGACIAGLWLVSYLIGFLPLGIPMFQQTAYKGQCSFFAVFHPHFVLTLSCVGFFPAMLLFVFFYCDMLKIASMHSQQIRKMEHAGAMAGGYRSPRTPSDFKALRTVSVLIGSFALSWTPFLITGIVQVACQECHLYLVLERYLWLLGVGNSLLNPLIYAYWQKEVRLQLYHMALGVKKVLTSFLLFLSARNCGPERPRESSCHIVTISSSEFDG
Type: cell-based
Protocol: The compounds of formula I according to the invention modulate the activity of the G-protein-coupled receptor GPR119. The effect of the compounds on the activation of GPR119 and on the stimulation of intracellular cAMP concentration is determined using the AlphaScreen cAMP Assay Kit (Cat. No. #6760625R) made by PerkinElmer.
MIN6 cells [Miyazaki J et al. Endocrinology. 1990 July; 127(1):126-32] are stably transfected with an expression vector for human GPR119 cDNA (Acc. No. NP_848566). Min-6/hGPR119 cells are cultured in DMEM, 10% FBS, 500 μM β-mercaptoethanol, 0.3 mg/mL Geniticin, 2 mM GlutaMAX at 37° C. 5% CO2. For the assay, the cells are seeded in Optiplates (white, 384-well, 160 W— barcoded, TC, sterile with lid, Cat. No. #6007688 (Perkin Elmer); 10000 cells/well; 50 μl). The plates covered with lids are then incubated for 24 hours at 37° C./5% CO2. After the medium is aspirated from the wells completely, 10 μl of the test compound are added, the compounds are diluted using stimulating buffer (140 mM NaCl, 3.6 mM KCl, 0.5 mM NaH2PO4, 0.5 mM MgSO4, 1.5 mM CaCl2, 10 mM Hepes, 5 mM NaHCO3; pH 7.4. 0.5 mM IBMX and 0.1% BSA, the final DMSO concentration is 1%). After 45 minutes incubation at room temperature (approx. 20° C.), the cAMP concentrations are determined using the AlphaScreen cAMP Assay Kit (Cat. No. #6760625R from PerkinElmer).

pEC50 | SMILES
8.40 | CCc1cnc(N2CCC([C@@H]3Cc4cc(C5=CCN(S(C)(=O)=O)CC5)ncc4O3)CC2)nc1 (single isomer, unassigned) [Example 30]
7.22 | CC(C)c1nc(N2CCC(C3Cc4cc(-c5ccc(CS(C)(=O)=O)cc5F)ncc4O3)CC2)no1 (stereo not shown) [Example 24, 5-(2-Fluoro-4-methanesulfonylmethyl-phenyl)-2-[1-(5-isopropyl-[1,2,4]oxadiazol-3-yl)-piperidin-4-yl]-2,3-dihydro-furo[2,3-c]pyridine]
7.80 | CC(C)c1noc(N2CCC([C@@H]3Cc4cc(C5=CCN(S(C)(=O)=O)CC5)ncc4O3)CC2)n1 (single isomer, unassigned) [Example 55]
7.80 | CC(C)c1noc(N2CCC(C3Cc4cc(C5=CCN(S(C)(=O)=O)CC5)ncc4O3)CC2)n1 (stereo not shown) [Example 20, 2-[1-(3-Isopropyl-[1,2,4]oxadiazol-5-yl)-piperidin-4-yl]-5-(1-methanesulfonyl-1,2,3,6-tetrahydro-pyridin-4-yl)-2,3-dihydro-furo[2,3-c]pyridine]
8.15 | CCc1cnc(N2CCC([C@H]3Cc4cc(-c5ccc(S(C)(=O)=O)cc5)ncc4O3)CC2)nc1 (single isomer, unassigned) [Example 85]
8.15 | CCCc1nc(N2CCC(C3Cc4cc(C5=CCN(S(C)(=O)=O)CC5)ncc4O3)CC2)no1 (stereo not shown) [Example 23, 5-(1-Methanesulfonyl-1,2,3,6-tetrahydro-pyridin-4-yl)-2-[1-(5-propyl-[1,2,4]oxadiazol-3-yl)-piperidin-4-yl]-2,3-dihydro-furo[2,3-c]pyridine]
7.80 | CCc1cnc(N2CCC(C3Cc4cc(-c5ccc(C(=O)N(C)CC#N)cc5)ccc4O3)CC2)nc1 (stereo not shown) [Example 71]
8.15 | CC(C)(C)c1nc(N2CCC([C@@H]3Cc4cc(C5=CCN(S(C)(=O)=O)CC5)ncc4O3)CC2)no1 (single isomer, unassigned) [Example 51]
7.92 | CCCc1nc(N2CCC(C3Cc4cc(-c5ccc(S(C)(=O)=O)cc5)ncc4O3)CC2)no1 (stereo not shown) [Example 9, 5-(4-Methanesulfonyl-phenyl)-2-[1-(5-propyl-[1,2,4]oxadiazol-3-yl)-piperidin-4-yl]-2,3-dihydro-furo[2,3-c]pyridine]
8.05 | CC(C)c1nc(N2CCC([C@]3(C)Cc4cc(C5=CCN(S(C)(=O)=O)CC5)ncc4O3)CC2)no1 (single isomer, unassigned) [Example 43]
6.97 | CCc1cnc(N2CCC(C3Cc4cc(-c5ccc(C(=O)N6CCC(O)C6)cc5)ccc4O3)CC2)nc1 (stereo not shown) [Example 70]
8.22 | CCCc1nc(N2CCC([C@]3(C)Cc4cc(C5=CCN(S(C)(=O)=O)CC5)ncc4O3)CC2)no1 (single isomer, unassigned) [Example 47]
7.55 | CC(C)c1noc(N2CCC(C3Cc4cc(-c5ccc(CS(C)(=O)=O)cc5)ncc4O3)CC2)n1 (stereo not shown) [Example 13, 2-[1-(3-Isopropyl-[1,2,4]oxadiazol-5-yl)-piperidin-4-yl]-5-(4-methanesulfonylmethyl-phenyl)-2,3-dihydro-furo[2,3-c]pyridine]

From patent US8778926B2, “Compounds, pharmaceutical compositions and uses thereof” (Boehringer Ingelheim International GmbH, priority 2011, dated 2014)
